Experimental data published in patent US20230219886A1, “NOVEL SELENO-NSAID ANALOGS AND USES THEREOF” (THE PENN STATE RESEARCH FOUNDATION, priority 2020, published 2023).
Where two headings read alike, the source gives them in different places.

Legend:
HT-29 (CRC) = assay: MTT cell viability assay, HT-29; settings: for IC50 / viability at 5 µM / viability at 25 µM / viability at 50 µM / GI50: Homo sapiens; for viability at 5 µM / viability at 25 µM / viability at 50 µM: read-out: cell viability
Experimental: (§1) Cell Culture Conditions. The cell lines were obtained from the American Type Culture Collection (ATCC). PANC-1 and Caco-2 cell lines were maintained in DMEM medium (Gibco); HT-29, HCT-116 and RKO cells were maintained in McCoy's 5A medium (Gibco); and DU-145 and H1299 cells were maintained in RPMI 1640 medium (Gibco), supplemented with 10% fetal bovine serum (FBS; Gibco) and 1% antibiotics (10.00 units/mL penicillin and 10.00 mg/mL streptomycin; Gibco). Cells were preserved in tissue culture flasks at 37° C. and 5% CO2. Culture medium was replaced every three days.
(§2) Cell Viability Assay. The effect of each compound on cell viability was tested using the MTT assay (81). Briefly, 9000 cells/well were grown in 96-well plates for 12 h. Then these cells were incubated with either DMSO (control) or nine different concentration between 0.01-50 μM of the test compounds for 24, 48, and 72 h. Three hours before the termination point, 20 μL of MTT were added to measure cellular viability. The resultant formazan crystals were dissolved in 50 μL of DMSO, and absorbance was measured at 570 nm and 630 nm wavelengths. IC50, GI50, TGI and LC50 values were calculated using OriginPro 8.5.1.
(§3) Evaluation of the antiproliferative activities of the novel molecules. […] These four cell lines were treated with each compound at three concentrations (5, 25 and 50 μM) for 48 h.

HCT-116 CRC cells = assay: MTT cell viability assay, HCT-116; format: cell-based, human; settings: Homo sapiens
Experimental: as §1, §2

CACO-2 CRC cells = assay: cells; settings: for IC50: Homo sapiens
Experimental: as §1, §2

RKO CRC cells = assay: cells; settings: Homo sapiens
Experimental: as §1, §2

[1] = system: PANC-1 (pancreatic carcinoma); assay: MTT cell viability assay, Panc-1; settings: Homo sapiens, PANC-1, 48 h, read-out: cell viability
Experimental: as §1, §2, §3

[2] = system: DU-145 (prostate carcinoma); assay: MTT cell viability assay, DU-145; settings: Homo sapiens, DU-145, 48 h, read-out: cell viability
Experimental: as §1, §2, §3

H1299 (lung carcinoma) = assay: MTT cell viability assay, H1299; settings: Homo sapiens, NCI-H1299, 48 h, read-out: cell viability
Experimental: as §1, §2, §3

CC[Se]C(=O)Cc1c(C)n(C(=O)c2ccc(Cl)cc2)c2ccc(OC)cc12 [Compound 5b, Se-ethyl 2-(1-(4-chlorobenzoyl)-5-methoxy-2-methyl-1H-indol-3-yl)ethane-selenoate]
IC50 (HT-29 (CRC); HT-29, 24 h): > 50 µM | IC50 (HT-29 (CRC); HT-29, 48 h): 4.9 ± 0.3 µM | IC50 (HT-29 (CRC); HT-29, 72 h): 4.9 ± 0.1 µM | IC50 (HCT-116 CRC cells; HCT-116, 24 h, read-out: IC50): > 50 µM | IC50 (HCT-116 CRC cells; HCT-116, 48 h, read-out: IC50): 6.3 ± 1.6 µM | IC50 (HCT-116 CRC cells; HCT-116, 72 h, read-out: IC50): 8.2 ± 1.7 µM | effect on CACO-2 viability (CACO-2 CRC cells): no effect | IC50 (CACO-2 CRC cells; Caco-2, 24 h): > 50 µM | IC50 (CACO-2 CRC cells; Caco-2, 48 h): > 50 µM | IC50 (CACO-2 CRC cells; Caco-2, 72 h): > 50 µM | IC50 (RKO CRC cells; 24 h): > 50 µM | IC50 (RKO CRC cells; 48 h): 30.8 ± 3.5 µM | IC50 (RKO CRC cells; 72 h): 33.3 ± 16.9 µM

COc1ccc2c(c1)c(CC(=O)[Se]Cc1ccccc1)c(C)n2C(=O)c1ccc(Cl)cc1 [Compound 5c, Se-benzyl 2-(1-(4-chlorobenzoyl)-5-methoxy-2-methyl-1H-indol-3-yl)ethane-selenoate]
IC50 (HT-29 (CRC); HT-29, 24 h): > 50 µM | IC50 (HT-29 (CRC); HT-29, 48 h): 4.2 ± 0.5 µM | IC50 (HT-29 (CRC); HT-29, 72 h): 4 ± 1 µM | IC50 (HCT-116 CRC cells; HCT-116, 24 h): > 50 µM | IC50 (HCT-116 CRC cells; HCT-116, 48 h): 14 ± 6.6 µM | IC50 (HCT-116 CRC cells; HCT-116, 72 h): 5.5 ± 1.2 µM | IC50 (CACO-2 CRC cells; Caco-2, 24 h): > 50 µM | IC50 (CACO-2 CRC cells; Caco-2, 48 h): > 50 µM | IC50 (CACO-2 CRC cells; Caco-2, 72 h): > 50 µM | IC50 (RKO CRC cells; 24 h): > 50 µM | IC50 (RKO CRC cells; 48 h): 26.2 ± 4.6 µM | IC50 (RKO CRC cells; 72 h): 11.5 ± 0.9 µM

CC[Se]C(=O)CC1=C(C)/C(=C/c2ccc([S+](C)[O-])cc2)c2ccc(F)cc21 (centres unmarked) [Compound 6b, Se-ethyl (Z)-2-(5-fluoro-2-methyl-1-(4-(methylsulfinyl)benzylidene)-1H-inden-3-yl)ethaneselenoate]
IC50 (HT-29 (CRC); HT-29, 24 h): 10.9 ± 1.4 µM | IC50 (HT-29 (CRC); HT-29, 48 h): 4.9 ± 0.2 µM | IC50 (HT-29 (CRC); HT-29, 72 h): 5 ± 0.1 µM | IC50 (HCT-116 CRC cells; HCT-116, 24 h, read-out: IC50): > 50 µM | IC50 (HCT-116 CRC cells; HCT-116, 48 h, read-out: IC50): 6.2 ± 0.9 µM | IC50 (HCT-116 CRC cells; HCT-116, 72 h, read-out: IC50): 7.2 ± 1 µM | effect on CACO-2 viability (CACO-2 CRC cells): no effect | IC50 (CACO-2 CRC cells; Caco-2, 24 h): > 50 µM | IC50 (CACO-2 CRC cells; Caco-2, 48 h): > 50 µM | IC50 (CACO-2 CRC cells; Caco-2, 72 h): > 50 µM | IC50 (RKO CRC cells; 24 h): > 50 µM | IC50 (RKO CRC cells; 48 h): 41.8 ± 13.8 µM | IC50 (RKO CRC cells; 72 h): 12.4 ± 0.5 µM

CC1=C(CC(=O)[Se]Cc2ccccc2)c2cc(F)ccc2/C1=C\c1ccc([S+](C)[O-])cc1 (centres unmarked) [Compound 6c, Se-benzyl (Z)-2-(5-fluoro-2-methyl-1-(4-(methylsulfinyl)benzylidene)-1H-inden-3-yl)ethaneselenoate]
IC50 (HT-29 (CRC); HT-29, 24 h): > 50 µM | IC50 (HT-29 (CRC); HT-29, 48 h): 5.1 ± 0.1 µM | IC50 (HT-29 (CRC); HT-29, 72 h): 5.2 ± 0.2 µM | IC50 (HCT-116 CRC cells; HCT-116, 24 h): > 50 µM | IC50 (HCT-116 CRC cells; HCT-116, 48 h): 7.8 ± 1.8 µM | IC50 (HCT-116 CRC cells; HCT-116, 72 h): 7 ± 0.8 µM | IC50 (CACO-2 CRC cells; Caco-2, 24 h): > 50 µM | IC50 (CACO-2 CRC cells; Caco-2, 48 h): 11.4 ± 1.6 µM | IC50 (CACO-2 CRC cells; Caco-2, 72 h): 14.2 ± 3.9 µM | IC50 (RKO CRC cells; 24 h): > 50 µM | IC50 (RKO CRC cells; 48 h): > 50 µM | IC50 (RKO CRC cells; 72 h): 35.8 ± 5.9 µM

O=C(O)c1cc(-c2ccc(F)cc2F)ccc1O [Dfl, diflunisal, reference compound]
viability at 5 µM [1]: 77.9 ± 5.4% | viability at 25 µM [1]: 75.5 ± 6.9% | viability at 50 µM [1]: 68.5 ± 9.3% | viability at 5 µM (HT-29 (CRC); HT-29, 48 h): 93.2 ± 5.7% | viability at 25 µM (HT-29 (CRC); HT-29, 48 h): 82.7 ± 9.8% | viability at 50 µM (HT-29 (CRC); HT-29, 48 h): 74.7 ± 2% | viability at 5 µM [2]: 71 ± 6.9% | viability at 25 µM [2]: 71.5 ± 9.1% | viability at 50 µM [2]: 78.9 ± 6.4% | viability at 5 µM (H1299 (lung carcinoma)): 85.2 ± 3.6% | viability at 25 µM (H1299 (lung carcinoma)): 94.3 ± 3.9% | viability at 50 µM (H1299 (lung carcinoma)): 88.7 ± 7.8%

COc1ccc2c(c1)c(CC(=O)O)c(C)n2C(=O)c1ccc(Cl)cc1 [Inn, indomethacin, reference compound]
viability at 5 µM [1]: 94.1 ± 8.3% | viability at 25 µM [1]: 85.9 ± 10.5% | viability at 50 µM [1]: 83.2 ± 6.3% | TGI (HT-29 (CRC); HT-29, 24 h): >50 µM | TGI (HT-29 (CRC); HT-29, 48 h): >50 µM | TGI (HT-29 (CRC); HT-29, 72 h): >50 µM | GI50 (HT-29 (CRC); HT-29, 24 h): > 50 µM | IC50 (HT-29 (CRC); HT-29, 24 h): > 50 µM | GI50 (HT-29 (CRC); HT-29, 48 h): > 50 µM | IC50 (HT-29 (CRC); HT-29, 48 h): > 50 µM | viability at 5 µM (HT-29 (CRC); HT-29, 48 h): 100 ± 8.4% | viability at 25 µM (HT-29 (CRC); HT-29, 48 h): 99.8 ± 14.2% | viability at 50 µM (HT-29 (CRC); HT-29, 48 h): 98.3 ± 13.4% | GI50 (HT-29 (CRC); HT-29, 72 h): > 50 µM | IC50 (HT-29 (CRC); HT-29, 72 h): > 50 µM | viability at 5 µM [2]: 89.6 ± 12.3% | viability at 25 µM [2]: 97.6 ± 21% | viability at 50 µM [2]: 96.2 ± 18.5% | viability at 5 µM (H1299 (lung carcinoma)): 76 ± 23.7% | viability at 25 µM (H1299 (lung carcinoma)): 70.4 ± 19.8% | viability at 50 µM (H1299 (lung carcinoma)): 66.2 ± 14% | IC50 (HCT-116 CRC cells; HCT-116, 24 h, read-out: IC50): > 50 µM | IC50 (HCT-116 CRC cells; HCT-116, 48 h, read-out: IC50): > 50 µM | IC50 (HCT-116 CRC cells; HCT-116, 72 h, read-out: IC50): > 50 µM | IC50 (CACO-2 CRC cells; Caco-2, 24 h): > 50 µM | IC50 (CACO-2 CRC cells; Caco-2, 48 h): > 50 µM | IC50 (CACO-2 CRC cells; Caco-2, 72 h): > 50 µM | IC50 (RKO CRC cells; 24 h): > 50 µM | IC50 (RKO CRC cells; 48 h): > 50 µM | IC50 (RKO CRC cells; 72 h): > 50 µM

Cc1cccc(Nc2ccccc2C(=O)O)c1C [Mf, mefenamic acid, reference compound]
viability at 5 µM [1]: 72.4 ± 5.6% | viability at 25 µM [1]: 61.9 ± 10.9% | viability at 50 µM [1]: 65.9 ± 5.1% | viability at 5 µM (HT-29 (CRC); HT-29, 48 h): 91.9 ± 4.9% | viability at 25 µM (HT-29 (CRC); HT-29, 48 h): 75.7 ± 4.1% | viability at 50 µM (HT-29 (CRC); HT-29, 48 h): 64.9 ± 4.5% | viability at 5 µM [2]: 100% | viability at 25 µM [2]: 100% | viability at 50 µM [2]: 100% | viability at 5 µM (H1299 (lung carcinoma)): 71.4 ± 15.5% | viability at 25 µM (H1299 (lung carcinoma)): 44.9 ± 1.4% | viability at 50 µM (H1299 (lung carcinoma)): 39.4 ± 1.3%
